# Measurements as given in US12564193B2, “Isoxazoline-substituted benzamide derivative, and preparation method therefor and use thereof” (SHANDONG UNITED PESTICIDE INDUSTRY CO., LTD., priority 2020, dated 2026).
# What was measured:
# Format in all cases: in vivo
# [1] = system: Tetranychus cinnabarinus; assay: Acaricidal activity, slide immersion of female adult mites: Tetranychus cinnabarinus; details: immersion 5 seconds, checked after 24 hours, read-out: fatality rate on Tetranychus cinnabarinus
# Protocol: The test method was as follows: a test solution with a desired concentration was prepared by dissolving a test compound sample in a suitable solvent (the kind of solvent was such as acetone, methanol, DMSO, etc., and was selected according to its dissolving ability for the sample). A double-sided adhesive tape was cut into 2-3 cm long pieces, the pieces were attached to one end of a microscope slide, paper pieces on the adhesive tape were removed using tweezers, female adult mites which were consistent in size, bright in body color and lively in action were selected using a zero-size brush pen, the backs of the female adult mites were adhered to the double-sided adhesive tape (note: the adhesion should not cover mite feet, mite whiskers and mouthparts), with 4 rows of mites adhered to each piece and 10 heads of the mites adhered to each row.
# One end of the glass slide with the mites was immersed into a drug liquid, with slightly shaking for 5 seconds, and then the slide was taken out. The excess drug liquid around the mite body and is surroundings is quickly sucked off using absorbent paper. The slide was placed in the biochemical incubator described above, and the results were checked by using binoculars after 24 hours. The mites were slightly touched by using a brush pen, the mites with immobility in feet were considered to be dead, and the fatality rate was calculated. The fatality rate was calculated as follows: […]
# [2] = system: Pieris rapae; assay: Insecticidal activity, spray on pre-infested radish plants: Pieris rapae; details: 144 h, spray, 6 days, read-out: fatality rate on Pieris rapae
# Protocol: (§1) For determination of insecticidal activity, the test method was as follows: a test solution with a desired concentration was prepared by dissolving a test compound sample in a suitable solvent (the kind of solvent was such as acetone, methanol, DMSO, etc., and was selected according to its dissolving ability for the sample). The test cell was composed of a small open container with 12-15 day old radish plants inside. The plants were pre-infested by placing 30-40 pests located on one leaf cut from the cultivated plant on one leaf of the test plant (leaf cutting method). As the leaves dehydrated, the pests moved on the test plants. After the pre-infesting, the soil of the test cells was covered with a layer of sand.
# (§2) The test method was as follows: the test was repeated for three times, and after spraying the formulated test compound, each test unit was allowed to dry for 1 hour, and then a black mesh cover was placed at the top. The test units were kept in a growth chamber at 25° C. and 70% relative humidity for 6 days. The mortality (fatality rate) of the insects was then visually assessed for each test unit, and the fatality rate was calculated as follows: […]
# [3] = system: Cnaphalocrocis medinalis; assay: Insecticidal activity, spray on pre-infested radish plants: Cnaphalocrocis medinalis; details: 144 h, spray, 6 days, read-out: fatality rate on Cnaphalocrocis medinalis
# Protocol: as §1, §2
# [4] = system: Plutella xylostella; assay: Insecticidal activity, spray on pre-infested radish plants: Plutella xylostella; details: for pest or weed control at 0.1 ppm / pest or weed control at 1 ppm / pest or weed control at 10 ppm: Plutella xylostella, 144 h, spray, 6 days, read-out: fatality rate on Plutella xylostella; for Fatality rate on Plutella xylostella (%): Table 3
# Protocol: as §1, §2
# [5] = system: Mythimna separata; assay: Insecticidal activity, spray on pre-infested radish plants: Mythimna separata; details: for pest or weed control at 0.1 ppm / pest or weed control at 1 ppm / pest or weed control at 10 ppm: Mythimna separata, 144 h, spray, 6 days, read-out: fatality rate on Mythimna separata; for Fatality rate on Mythimna separata (%): Table 3
# Protocol: as §1, §2
# [6] = system: Frankliniella occidentalis; assay: Insecticidal activity, spray on pre-infested radish plants: Frankliniella occidentalis; details: for pest or weed control at 1 ppm / pest or weed control at 10 ppm / pest or weed control at 25 ppm: Frankliniella occidentalis, 144 h, spray, 6 days, read-out: fatality rate on Frankliniella occidentalis; for Fatality rate on Frankliniella occidentalis (%): Table 3
# Protocol: as §1
# The test method was as follows: the test was repeated for three times, and after spraying the formulated test compound, each test unit was allowed to dry for 1 hour, and then a black mesh cover was placed at the top. The test units were kept in a growth chamber at 25° C. and 70% relative humidity for 6 days. The mortality (fatality rate) of the insects was then visually assessed for each test unit, and the fatality rate was calculated as follows:
# [formula] (1) Test Results for the Control of Frankliniella occidentalis by Exemplary Example Compounds
# [7] = system: Chilo suppressalis; assay: Insecticidal activity, spray on pre-infested radish plants: Chilo suppressalis; details: for pest or weed control at 0.1 ppm / pest or weed control at 1 ppm / pest or weed control at 10 ppm: Chilo suppressalis, 144 h, spray, 6 days, read-out: fatality rate on Chilo suppressalis; for Fatality rate on Chilo suppressalis (%): Table 3
# Protocol: as §1, §2
# [8] = system: Spodoptera litura; assay: Insecticidal activity, spray on pre-infested radish plants: Spodoptera litura; details: 144 h, spray, 6 days, read-out: fatality rate on Spodoptera litura
# Protocol: as §1, §2
SMILES,pest or weed control at 1 ppm [1],pest or weed control at 10 ppm [1],pest or weed control at 25 ppm [1],pest or weed control at 0.1 ppm [2],pest or weed control at 1 ppm [2],pest or weed control at 10 ppm [2],pest or weed control at 0.1 ppm [3],pest or weed control at 1 ppm [3],pest or weed control at 10 ppm [3],pest or weed control at 0.1 ppm [4],pest or weed control at 1 ppm [4],pest or weed control at 10 ppm [4],pest or weed control at 0.1 ppm [5],pest or weed control at 1 ppm [5],pest or weed control at 10 ppm [5],pest or weed control at 1 ppm [6],pest or weed control at 10 ppm [6],pest or weed control at 25 ppm [6],pest or weed control at 0.1 ppm [7],pest or weed control at 1 ppm [7],other results
Cc1cc(C2=NOC(c3cc(F)c(F)c(F)c3)(C(F)(F)F)C2)ccc1C(=O)NCCc1ncc(C(F)(F)F)cc1Cl (stereo not drawn) [Compound 20],> 80%,> 80%,> 80%,> 80%,> 80%,> 80%,> 80%,> 80%,> 80%,> 80%,> 80%,> 80%,> 80%,> 80%,> 80%,> 80%,> 80%,> 80%,> 80%,> 80%,pest or weed control at 10 ppm [7]: > 80%; pest or weed control at 0.1 ppm [8]: > 80%; pest or weed control at 1 ppm [8]: > 80%; pest or weed control at 10 ppm [8]: > 80%
"Cc1cc(C2=NOC(c3cc(F)c(F)c(F)c3)(C(F)(F)F)C2)ccc1C(=O)NCc1ncc(C(F)(F)F)cc1Cl (stereo not drawn) [Compound 10, N-((3-chloro-5-(trifluoromethyl)pyridin-2-yl)methyl)-2-methyl-4-(5-(trifluoromethyl)-5-(3,4,5-trifluorophenyl)-4,5-dihydroisoxazol-3-yl)benzamide]",> 80%,> 80%,> 80%,> 80%,> 80%,> 80%,> 80%,> 80%,> 80%,> 80%,> 80%,> 80%,> 80%,> 80%,> 80%,> 80%,> 80%,> 80%,> 80%,> 80%,Fatality rate on Plutella xylostella (%) ([4]; 0.1 ppm): 90%; Fatality rate on Plutella xylostella (%) ([4]; 1 ppm): 100%; Fatality rate on Plutella xylostella (%) ([4]; 10 ppm): 100%; Fatality rate on Mythimna separata (%) ([5]; 0.1 ppm): 85%; Fatality rate on Mythimna separata (%) ([5]; 1 ppm): 100%; Fatality rate on Mythimna separata (%) ([5]; 10 ppm): 100%; Fatality rate on Frankliniella occidentalis (%) ([6]; 1 ppm): 85%; Fatality rate on Frankliniella occidentalis (%) ([6]; 10 ppm): 100%; Fatality rate on Frankliniella occidentalis (%) ([6]; 25 ppm): 100%; Fatality rate on Chilo suppressalis (%) ([7]; 0.1 ppm): 85%; Fatality rate on Chilo suppressalis (%) ([7]; 1 ppm): 100%; Fatality rate on Chilo suppressalis (%) ([7]; 10 ppm): 100%; pest or weed control at 10 ppm [7]: > 80%; pest or weed control at 0.1 ppm [8]: > 80%; pest or weed control at 1 ppm [8]: > 80%; pest or weed control at 10 ppm [8]: > 80%
